In PubChem BioAssay (NCI):
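A five-concentration, 48-hour dose response in 96-well plates underlies each endpoint, interpolated linearly between surrounding concentrations. TGI denotes the concentration required for complete inhibition of growth.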

Key:
Assay in all cases: inhibition of tumour cell growth, NCI panel, 48 h
[1] = tested on: 786-0 renal
[2] = tested on: CCRF-CEM leukemia
[3] = tested on: EKVX NSCLC
[4] = tested on: HCC-2998 colon
[5] = tested on: HCT-15 colon
[6] = tested on: HS 578T breast
[7] = tested on: K-562 leukemia
[8] = tested on: LOX IMVI melanoma
[9] = tested on: M14 melanoma
[10] = tested on: MDA-MB-231 breast
[11] = tested on: MDA-MB-435
[12] = tested on: NCI-H226 lung
[13] = tested on: NCI-H23 lung
[14] = tested on: NCI/ADR-RES ovarian
[15] = tested on: OVCAR-3 ovarian
[16] = tested on: OVCAR-5 ovarian
[17] = tested on: TK-10 renal
[18] = tested on: UACC-257 melanoma
[19] = tested on: BT-549 breast

## O=c1oc2c/c(=C\c3ccccn3)c(=O)c3cccc1c3-2
[1]
  TGI: > 100 µM
[2]
  TGI: > 100 µM
[3]
  TGI: > 100 µM
[4]
  TGI: > 100 µM
[5]
  TGI: > 100 µM
[6]
  TGI: > 100 µM
[7]
  TGI: > 100 µM
[8]
  TGI: > 100 µM
[9]
  TGI: > 100 µM
[10]
  TGI: > 100 µM
[11]
  TGI: > 100 µM
[12]
  TGI: > 100 µM
[13]
  TGI: > 100 µM
[14]
  TGI: > 100 µM
[15]
  TGI: 39.4 µM
[16]
  TGI: > 100 µM
[17]
  TGI: > 100 µM
[18]
  TGI: > 100 µM

## Cc1ccc(S(=O)(=O)N/N=C2\CC(C)OC3=C2CCCCCC3)cc1 (stereo not drawn)
[1]
  TGI: 32.3 µM
[2]
  TGI: > 100 µM
[3]
  TGI: 30.4 µM
[6]
  TGI: 47 µM
[7]
  TGI: > 100 µM
[8]
  TGI: 33.7 µM
[9]
  TGI: 36.2 µM
[10]
  TGI: 39.4 µM
[11]
  TGI: 34.6 µM
[12]
  TGI: 39 µM
[13]
  TGI: 41.6 µM
[14]
  TGI: 44.7 µM
[15]
  TGI: 36 µM
[16]
  TGI: 37.8 µM
[17]
  TGI: 37.2 µM
[18]
  TGI: 36.6 µM

## COC(=O)/C(=N/NC(C)(C)C)C(C(=O)OC)C(=O)C(=O)Nc1nc2ccc([N+](=O)[O-])cc2s1 (stereo not drawn)
[1]
  TGI: > 100 µM
[2]
  TGI: > 100 µM
[3]
  TGI: > 100 µM
[4]
  TGI: > 100 µM
[5]
  TGI: > 100 µM
[7]
  TGI: > 100 µM
[8]
  TGI: > 100 µM
[9]
  TGI: > 100 µM
[12]
  TGI: > 100 µM
[13]
  TGI: > 100 µM
[15]
  TGI: > 100 µM
[16]
  TGI: > 100 µM
[17]
  TGI: > 100 µM
[18]
  TGI: > 100 µM

## N#C/C(C(=O)Nc1ccc(Cl)cc1)=C(/N)N1CCOCC1
[1]
  TGI: > 100 µM
[19]
  TGI: > 100 µM
[2]
  TGI: > 100 µM
[3]
  TGI: > 100 µM
[4]
  TGI: > 100 µM
[5]
  TGI: > 100 µM
[7]
  TGI: > 100 µM
[8]
  TGI: > 100 µM
[9]
  TGI: > 100 µM
[11]
  TGI: > 100 µM
[12]
  TGI: > 100 µM
[13]
  TGI: > 100 µM
[14]
  TGI: > 100 µM
[15]
  TGI: > 100 µM
[16]
  TGI: > 100 µM
[18]
  TGI: > 100 µM

## c1ccc2c3nnc(c2c1)SCCCSc1nnc(c2ccccc12)SCCCS3
[1]
  TGI: > 100 µM
[2]
  TGI: > 100 µM
[3]
  TGI: > 100 µM
[4]
  TGI: > 100 µM
[5]
  TGI: > 100 µM
[7]
  TGI: > 100 µM
[8]
  TGI: > 100 µM
[9]
  TGI: > 100 µM
[10]
  TGI: 48.6 µM
[11]
  TGI: > 100 µM
[12]
  TGI: 56.6 µM
[13]
  TGI: > 100 µM
[14]
  TGI: 86.4 µM
[15]
  TGI: > 100 µM
[16]
  TGI: > 100 µM
[17]
  TGI: > 100 µM
[18]
  TGI: > 100 µM

## C#CC(O)/C=C/C(O)CCCC(O)CC#CC(O)C#CC(O)CCCC(O)/C=C/CCCCCC(=O)CCCCCCCCCCCCCC(O)C(O)C#CC(=O)O (stereo not drawn)
[1]
  TGI: > 50 µM
[2]
  TGI: 34.2 µM
[3]
  TGI: > 50 µM
[4]
  TGI: > 50 µM
[5]
  TGI: > 50 µM
[6]
  TGI: 33.3 µM
[7]
  TGI: > 50 µM
[8]
  TGI: 24.5 µM
[9]
  TGI: > 50 µM
[10]
  TGI: 24.6 µM
[11]
  TGI: > 50 µM
[12]
  TGI: > 50 µM
[13]
  TGI: > 50 µM
[14]
  TGI: > 50 µM
[16]
  TGI: > 50 µM
[17]
  TGI: > 50 µM
[18]
  TGI: > 50 µM

## O=c1c2ccccc2nc2sc(/N=C/C=C/c3ccccc3)nn12
[1]
  TGI: > 100 µM
[19]
  TGI: > 100 µM
[2]
  TGI: > 100 µM
[3]
  TGI: > 100 µM
[4]
  TGI: > 100 µM
[5]
  TGI: > 100 µM
[6]
  TGI: > 100 µM
[7]
  TGI: > 100 µM
[8]
  TGI: > 100 µM
[9]
  TGI: > 100 µM
[11]
  TGI: > 100 µM
[12]
  TGI: > 100 µM
[13]
  TGI: > 100 µM
[14]
  TGI: > 100 µM
[15]
  TGI: > 100 µM
[16]
  TGI: > 100 µM
[17]
  TGI: > 100 µM
[18]
  TGI: > 100 µM

## C=C(CO)[C@H]1Oc2ccc(C(C)=O)cc2[C@@H]1O
[1]
  TGI: > 100 µM
[19]
  TGI: > 100 µM
[2]
  TGI: > 100 µM
[3]
  TGI: > 100 µM
[4]
  TGI: > 100 µM
[5]
  TGI: > 100 µM
[6]
  TGI: > 100 µM
[7]
  TGI: > 100 µM
[8]
  TGI: > 100 µM
[9]
  TGI: > 100 µM
[10]
  TGI: > 100 µM
[11]
  TGI: > 100 µM
[12]
  TGI: > 100 µM
[13]
  TGI: > 100 µM
[15]
  TGI: > 100 µM
[16]
  TGI: > 100 µM
[17]
  TGI: > 100 µM
[18]
  TGI: > 100 µM

## N#CC1=C(N)OC(c2cccc([N+](=O)[O-])c2)C1(C#N)C#N (stereo not drawn)
[1]
  TGI: 28.1 µM
[3]
  TGI: 64.6 µM
[4]
  TGI: 35.2 µM
[5]
  TGI: 34.3 µM
[6]
  TGI: > 100 µM
[7]
  TGI: > 100 µM
[8]
  TGI: 28.4 µM
[9]
  TGI: 63.6 µM
[11]
  TGI: 59.2 µM
[12]
  TGI: 94.3 µM
[13]
  TGI: 39.3 µM
[14]
  TGI: > 100 µM
[16]
  TGI: 42.7 µM
[17]
  TGI: 33.8 µM
[18]
  TGI: 31.3 µM

## NNc1ncc2c(n1)-c1ccccc1OC2
[1]
  TGI: > 100 µM
[2]
  TGI: > 100 µM
[3]
  TGI: > 100 µM
[5]
  TGI: > 100 µM
[6]
  TGI: > 100 µM
[7]
  TGI: > 100 µM
[8]
  TGI: > 100 µM
[9]
  TGI: > 100 µM
[10]
  TGI: > 100 µM
[11]
  TGI: > 100 µM
[12]
  TGI: > 100 µM
[13]
  TGI: > 100 µM
[14]
  TGI: > 100 µM
[15]
  TGI: > 100 µM
[16]
  TGI: > 100 µM
[17]
  TGI: > 100 µM
[18]
  TGI: > 100 µM

## Cc1cc(-c2cscn2)c(O)c([N+](=O)[O-])c1
[1]
  TGI: > 100 µM
[19]
  TGI: > 100 µM
[2]
  TGI: > 100 µM
[3]
  TGI: > 100 µM
[4]
  TGI: > 100 µM
[5]
  TGI: > 100 µM
[6]
  TGI: > 100 µM
[7]
  TGI: > 100 µM
[8]
  TGI: > 100 µM
[9]
  TGI: > 100 µM
[11]
  TGI: > 100 µM
[13]
  TGI: > 100 µM
[14]
  TGI: > 100 µM
[16]
  TGI: > 100 µM
[17]
  TGI: > 100 µM
[18]
  TGI: > 100 µM

## CCCCCC1=C2C(c3ccc(OC)cc3)=C(N)C(c3ccc(OC)cc3)=C3NC(=O)C(C=C1)C32 (stereo not drawn)
[1]
  TGI: > 100 µM
[19]
  TGI: > 100 µM
[2]
  TGI: > 100 µM
[3]
  TGI: > 100 µM
[4]
  TGI: > 100 µM
[5]
  TGI: > 100 µM
[7]
  TGI: > 100 µM
[8]
  TGI: > 100 µM
[9]
  TGI: > 100 µM
[10]
  TGI: > 100 µM
[11]
  TGI: > 100 µM
[12]
  TGI: 96.8 µM
[13]
  TGI: > 100 µM
[14]
  TGI: > 100 µM
[15]
  TGI: > 100 µM
[16]
  TGI: > 100 µM
[17]
  TGI: > 100 µM
[18]
  TGI: > 100 µM

## CCOC(=O)CC(=O)CSc1c(-c2ccccc2)c(=O)n(-c2ccccc2)c(=S)n1-c1ccccc1
[1]
  TGI: > 100 µM
[2]
  TGI: > 100 µM
[3]
  TGI: > 100 µM
[4]
  TGI: > 100 µM
[5]
  TGI: > 100 µM
[6]
  TGI: > 100 µM
[7]
  TGI: > 100 µM
[8]
  TGI: > 100 µM
[9]
  TGI: > 100 µM
[10]
  TGI: > 100 µM
[11]
  TGI: > 100 µM
[12]
  TGI: > 100 µM
[13]
  TGI: > 100 µM
[14]
  TGI: > 100 µM
[15]
  TGI: > 100 µM
[16]
  TGI: > 100 µM
[17]
  TGI: > 100 µM
[18]
  TGI: > 100 µM
